Measurements reported in article PMC8617031, “Development of a BCL-xL and BCL-2 dual degrader with improved anti-leukemic activity,” (Nature Communications, 2021).
Several values for one entry are separate records, joined by “and”; a condition that tells them apart may be missing. Equal values may be shown once.

Tests used:
[1] = test system: Flag-BCL-2 (WT and lysine mutants); assay: Degradation of Flag-BCL-2 WT and lysine mutants in transfected 293T cells; assay type: cell-based, human; conditions: 753b-treated 293T, DMSO = 100, Fig. 5b
Protocol: Cells were collected, washed once with ice-cold phosphate-buffered saline, pH 7.2 (PBS, cat. no. 20012027; Thermo Fisher Scientific) and lysed in RIPA lysis buffer (Cat. No. BP-115DG, Boston Bio Products, Ashland, MA, USA) supplemented with protease and phosphatase inhibitor cocktails (Cat. No. PPC1010, Sigma-Aldrich, St. Louis, MO, USA) through sonication. The samples were centrifuged at 14,000 r.p.m. for 5 min and the supernatants were transferred into a new tube. The protein concentration in the supernatants was determined using the Pierce BCA protein Assay kit (cat. no. 23225, Thermo Fisher Scientific). The protein concentration was normalized, and the samples were reduced in 4× Laemmli’s SDS-sample buffer (cat. no. BP-110R, Boston Bio Products) and denatured at 95 °C for 5 min. An equal amount of protein samples (20–40 μg per lane) were resolved using precast 4–20% Tris-glycine gels (Mini-PROTEAN TGX, cat. no. 456–1094, Bio-Rad), and resolved proteins were transferred onto 0.2-µm pore size polyvinylidene difluoride (PVDF) blotting membranes (cat. no. LC2002, Thermo Fisher Scientific) using mini trans-blot electrophoretic transfer cell (Bio-Rad). The membranes were blocked with non-fat dry milk (5% wt/vol) in 1× Tris-buffered saline-Tween-20 (TBST, cat. no. J77500, Affymetrix) for 1 h at room temperature, and were subsequently probed with primary antibodies at a predetermined optimal concentration in non-fat dry milk (5% wt/vol in TBST) overnight at 4 °C. The membranes were washed three times (5 min each) in TBST and then incubated with horse radish peroxidase (HRP)-conjugated secondary antibodies for 1 h at room temperature. Following sufficient washing with TBST, the membranes were exposed with chemiluminescent HRP substrate (cat. no. WBKLS0500, MilliporeSigma), and the signal was detected using the ChemiDoc MP Imaging System (Bio-Rad) and quantified using the ImageJ (v1.53a) software from NIH.
Plasmids were purified on miniprep columns according to the manufacturer’s protocol (Cat. No. 27106 Qiagen, Germantown, MD, USA). The construction of Flag-BCL-xL (pDL2009) and Flag-BCL-xL-K-ko (pDL2129) were described previously. Flag-BCL-2 was a gift from Clark Distelhorst (Addgene plasmid # 18003, Watertown, MA, USA). Plasmids Flag-BCL-xL-K16-only, Flag-BCL-xL-K20-only, Flag-BCL-xL-K157-only, Flag-BCL-xL-K-ko-R34K, Flag-BCL-xL-K-ko-R102K, Flag-BCL-xL-K-ko-R132K, Flag-BCL-xL-K-ko-G186K, Flag-BCL-2-K17R, Flag-BCL-2-K22R, and Flag-BCL-2-K17/22R were constructed by using Q5® Site-Directed Mutagenesis Kit (Cat. No. E0554S, NEB, Ipswich, MA, USA) and the following primer sets. Flag-BCL-xL-K-ko (pDL2129) or Flag-BCL-2 was used as the template. […]

[2] = test system: Flag-BCL-xL WT or mutants; assay: Polyubiquitination assay (Flag IP, HA-Ub blot), BCL-xL; assay type: cell-based, human; conditions: 293T cells, MG132 10 µM pretreatment, 753b 0.1 µM, 5 h
Excerpt: K16-only, K20-only, and K87-only represent that all the surface lysines on BCL-xL are mutated to arginines except K16, K20, and K87, respectively. Representative immunoblots of Flag-BCL-xL WT and mutants are shown in the top panel. […] K17R and K22R represents that K17 and K22 on BCL-2 are respectively mutated to arginine; K17/22R means both K17 and K22 on BCL-2 are mutated to arginine. Representative immunoblots of Flag-BCL-2 WT and mutants are shown in the top panel. The quantification of the relative Flag-BCL-xL or Flag-BCL-2 protein content in the immunoblots is presented as mean values ± s.e.m. (n = 3 biologically independent experiments) in the bottom panel. […] After 36 h, cells were pre-treated with MG132 (10 µM) for 2 h and then treated with or without 753b (0.1 µM for BCL-xL and 1 uM for BCL-2) for 5 h. The Flag-tagged proteins were immunoprecipitated (IP) and immunoblotted with HA or Flag antibody. The input results are shown in Supplementary Fig. 9. Data are a representative of two independent experiments. Source data are provided as a Source data file.
Proteins were extracted by using IP lysis buffer (Cat. No. 87788, Thermal Fisher Scientific) and IP was performed using Anti-FLAG M2 Magnetic Beads (Cat. No. M8823, Sigma-Aldrich) according to the manufacturer’s protocol. […]

Cc1ncsc1-c1ccc([C@H](C)NC(=O)[C@@H]2C[C@@H](O)CN2C(=O)[C@@H](NC(=O)CCCCCCC(=O)N2CCN(C[C@]3(C)CCC(c4ccc(Cl)cc4)=C(CN4CCN(c5ccc(C(=O)NS(=O)(=O)c6ccc(N[C@H](CCN7CCOCC7)CSc7ccccc7)c(S(=O)(=O)C(F)(F)F)c6)cc5)CC4)C3)CC2)C(C)(C)C)cc1 [753b]
relative Flag-BCL-2 protein content ([1]; K17/22R mutant): 87 and 104 and 94 | relative Flag-BCL-2 protein content ([1]; K17R mutant): 83 and 90 and 96 | relative Flag-BCL-2 protein content ([1]; K22R mutant): 38 and 28 and 35 | relative Flag-BCL-2 protein content ([1]; WT Flag-BCL-2, 3 replicates): 8 and 16 and 27 | polyubiquitination of BCL-xL WT and mutants (in words) [2]: induces polyubiquitination of WT, K20-only, and K87-only BCL-xL, but not K16-only BCL-xL
